Where a name gives a salt, the structure may show the parent alone.
Columns and labels:
[1] = Phase II study of IPI-504 monotherapy in advanced NSCLC: adverse events and laboratory abnormalities; format: in vivo, human
Description: Treatment consisted of a 30-minute infusion of intravenous IPI-504 on days 1, 4, 8 and 11 of a 21-day cycle. Therapy continued until progressive disease (PD), intolerable side effects, or elective withdrawal. A total of 76 patients were enrolled. The starting dose was 400 mg/m^2 for 75 patients. In April 2009, the dose for patients who were on study (19 patients) was lowered to 225 mg/m^2, due to hepatotoxicities observed at the 400 mg/m^2 dose in a separate trial of IPI-504 in patients with gastrointestinal stromal tumors (GIST) (Demetri G. D. et al. Final results from a phase III study of IPI-504 (retaspimycin hydrochloride) versus placebo in patients with gastrointestinal stromal tumors (GIST) following failure of kinase inhibitor therapies. Paper presented at: Gastrointestinal Cancers Symposium; Jan. 22-24, 2010, 2010; Orlando, Fla.), and the last enrolled patient started at a dose of 225 mg/m^2.
All patients were assessed for safety by history, physical examination, blood chemistries, liver function tests and blood counts, at baseline and prior to each infusion. Amylase and lipase were assessed if there were symptoms of pancreatitis. Adverse events were graded using the NCl common toxicity criteria version 3.0 (NCl. Common terminology criteria for adverse events (CTCAE) version 3.0 Aug. 9, 2006). Slit lamp eye examinations were performed during screening and electrocardiograms were obtained during screening and before and after the first infusion, to evaluate for keratitis and QTc prolongation, respectively. Radiographic evaluation of tumor response by CT-scan was performed after every 2 cycles. All films were reviewed and independently assessed by a central radiology core laboratory.
Summary statistics were used to describe safety and included all patients treated with IPI-504. PFS was defined as the time from enrollment to progressive disease or death, censored at the last known follow-up, and was calculated with the Kaplan-Meier method, following the intent-to-treat principle.

H3122 xenograft = experiment: H3122 xenograft, tumor volume; format: in vivo, nude mice; conditions: IPI-504 75 mg/kg twice weekly
Description: Tumor volume (in mm^3) is shown as a function of days of treatment.
Tumor volumes were assessed as described above.

AKT/mTOR pathway = experiment: Immunoblot of BON-1 cells, IPI-504, rapamycin or both; format: cell-based; conditions: BON-1, 6 or 24 hours, 1 μM IPI-504, 100 nM rapamycin or both
Description: BON-1 cells were incubated for either 6 hours or 24 hours with 1 uM of IPI-504, 100 nM rapamycin (Sigma) or the combination of both. 50 ug of cell lysate was immunoblotted for pAKT, total AKT, pS6, total S6, pERK 1/2 (Cell Signaling), IGF-1Rb, Hsp70, and b-actin (Santa Cruz). Image analysis and band quantization were performed with the Bio-Rad Versa Doc system. The expression of GADPH was used as a control for protein loading.
Since the PI3K/Akt/mTOR pathway is activated in neuroendocrine tumors, GEP-NET cells were treated with IPI-504 and drugs which inhibit the AKT/mTOR pathway to look for combination effects. In one experiment, BON-1 cells were incubated for 6 or 24 hours with 1 μM IPI-504, 100 nM rapamycin or the combination of both. Fifty μg of cell lysate was immunoblotted for pAKT, total AKT, pS6, IGF-1Rβ, Hsp70, and β-actin.

[2] = maximum post-baseline grade based on laboratory values

## C=CCNc1c(O)cc2c(O)c1C[C@@H](C)C[C@H](OC)[C@H](O)[C@@H](C)/C=C(\C)[C@H](OC(N)=O)[C@@H](OC)/C=C\C=C(/C)C(=O)N2 [IPI-504, retaspimycin hydrochloride]
[1]; 76 patients
  Abdominal pain: patients with Grade 1 or 2 event: 18 (23.7) n (%)
  Abdominal pain: patients with any event: 18 (23.7) n (%)
  Abdominal pain: patients with ≧Grade 3 event: 1 (1.3) n (%)
  Anorexia: patients with Grade 1 or 2 event: 18 (23.7) n (%)
  Anorexia: patients with any event: 19 (25.0) n (%)
  Anorexia: patients with ≧Grade 3 event: 4 (5.3) n (%)
  Arthralgia: patients with Grade 1 or 2 event: 17 (22.4) n (%)
  Arthralgia: patients with any event: 19 (25.0) n (%)
  Arthralgia: patients with ≧Grade 3 event: 2 (2.6) n (%)
  Back pain: patients with Grade 1 or 2 event: 16 (21.1) n (%)
  Back pain: patients with any event: 16 (21.1) n (%)
  Back pain: patients with ≧Grade 3 event: 0 (0.0) n (%)
  Constipation: patients with Grade 1 or 2 event: 18 (23.7) n (%)
  Constipation: patients with any event: 18 (23.7) n (%)
  Constipation: patients with ≧Grade 3 event: 2 (2.6) n (%)
  Cough: patients with Grade 1 or 2 event: 24 (31.6) n (%)
  Cough: patients with any event: 24 (31.6) n (%)
  Cough: patients with ≧Grade 3 event: 2 (2.6) n (%)
  Dehydration: patients with Grade 1 or 2 event: 11 (14.5) n (%)
  Dehydration: patients with any event: 14 (18.4) n (%)
  Dehydration: patients with ≧Grade 3 event: 3 (3.9) n (%)
  Diarrhoea: patients with Grade 1 or 2 event: 37 (48.7) n (%)
  Diarrhoea: patients with any event: 40 (52.6) n (%)
  Diarrhoea: patients with ≧Grade 3 event: 8 (10.5) n (%)
  Dizziness: patients with Grade 1 or 2 event: 12 (15.8) n (%)
  Dizziness: patients with any event: 12 (15.8) n (%)
  Dizziness: patients with ≧Grade 3 event: 0 (0.0) n (%)
  Dyspnoea: patients with Grade 1 or 2 event: 15 (19.7) n (%)
  Dyspnoea: patients with any event: 18 (23.7) n (%)
  Dyspnoea: patients with ≧Grade 3 event: 6 (7.9) n (%)
  Fatigue: patients with Grade 1 or 2 event: 41 (53.9) n (%)
  Fatigue: patients with any event: 44 (57.9) n (%)
  Fatigue: patients with ≧Grade 3 event: 6 (7.9) n (%)
  Headache: patients with Grade 1 or 2 event: 19 (25.0) n (%)
  Headache: patients with any event: 19 (25.0) n (%)
  Headache: patients with ≧Grade 3 event: 0 (0.0) n (%)
  Infusion site pain: patients with Grade 1 or 2 event: 15 (19.7) n (%)
  Infusion site pain: patients with any event: 15 (19.7) n (%)
  Infusion site pain: patients with ≧Grade 3 event: 0 (0.0) n (%)
  Insomnia: patients with Grade 1 or 2 event: 12 (15.8) n (%)
  Insomnia: patients with any event: 12 (15.8) n (%)
  Insomnia: patients with ≧Grade 3 event: 0 (0.0) n (%)
  Musculoskeletal chest pain: patients with Grade 1 or 2 event: 11 (14.5) n (%)
  Musculoskeletal chest pain: patients with any event: 13 (17.1) n (%)
  Musculoskeletal chest pain: patients with ≧Grade 3 event: 3 (3.9) n (%)
  Myalgia: patients with Grade 1 or 2 event: 18 (23.7) n (%)
  Myalgia: patients with any event: 19 (25.0) n (%)
  Myalgia: patients with ≧Grade 3 event: 1 (1.3) n (%)
  Nausea: patients with Grade 1 or 2 event: 41 (53.9) n (%)
  Nausea: patients with any event: 43 (56.6) n (%)
  Nausea: patients with ≧Grade 3 event: 6 (7.9) n (%)
  Pyrexia: patients with Grade 1 or 2 event: 12 (15.8) n (%)
  Pyrexia: patients with any event: 12 (15.8) n (%)
  Pyrexia: patients with ≧Grade 3 event: 0 (0.0) n (%)
  Urine colour abnormal: patients with Grade 1 or 2 event: 22 (28.9) n (%)
  Urine colour abnormal: patients with any event: 22 (28.9) n (%)
  Urine colour abnormal: patients with ≧Grade 3 event: 0 (0.0) n (%)
  Vision blurred: patients with Grade 1 or 2 event: 12 (15.8) n (%)
  Vision blurred: patients with any event: 12 (15.8) n (%)
  Vision blurred: patients with ≧Grade 3 event: 0 (0.0) n (%)
  Vomiting: patients with Grade 1 or 2 event: 25 (32.9) n (%)
  Vomiting: patients with any event: 28 (36.8) n (%)
  Vomiting: patients with ≧Grade 3 event: 6 (7.9) n (%)
  deaths on study considered related to study drug: Three
  patients who discontinued therapy for adverse events: 14%
  patients with dose reductions for toxicity: 12%
[1]; Grade 3 or 4
  bilirubin elevation: No Grade 3 or 4 bilirubin elevation
[1]; Grade 3 or greater
  ALT elevations: 7%
  AST elevations: 9%
  alkaline phosphatase elevations: 5%
[1]; IPI-504 monotherapy, hydrochloride
  tolerability: generally well tolerated
[1]; any grade
  alanine aminotransferase (ALT) elevations: 41%
  alkaline phosphatase elevations: 62%
  aspartate aminotransferase (AST) elevations: 49%
[1]; [2]
  ALT (liver function test): patients with Grade 1 or 2 event: 26 (34.2) n (%)
  ALT (liver function test): patients with any event: 31 (40.8) n (%)
  ALT (liver function test): patients with ≧Grade 3 event: 5 (6.6) n (%)
  AST (liver function test): patients with Grade 1 or 2 event: 30 (39.5) n (%)
  AST (liver function test): patients with any event: 37 (48.7) n (%)
  AST (liver function test): patients with ≧Grade 3 event: 7 (9.2) n (%)
  Alkaline phosphatase (liver function test): patients with Grade 1 or 2 event: 43 (56.6) n (%)
  Alkaline phosphatase (liver function test): patients with any event: 47 (61.8) n (%)
  Alkaline phosphatase (liver function test): patients with ≧Grade 3 event: 4 (5.3) n (%)
  Total bilirubin (liver function test): patients with Grade 1 or 2 event: 3 (3.9) n (%)
  Total bilirubin (liver function test): patients with any event: 3 (3.9) n (%)
  Total bilirubin (liver function test): patients with ≧Grade 3 event: 0 (0.0) n (%)
[1]; share of patients
  transient, non-toxic purple-colored urine: About a third
H3122 xenograft
  tumor response: tumor regression
AKT/mTOR pathway
  effect on AKT and signalling downstream of mTOR: AKT degradation

Source: US20110118298A1, “COMPOSITIONS, KITS, AND METHODS FOR IDENTIFICATION, ASSESSMENT, PREVENTION, AND THERAPY OF CANCER” (INFINITY PHARMACEUTICALS, INC., priority 2009, published 2011)
